# Where two headings read alike, the source gives them in different places.
# Legend:
# Assay type in all cases: biochemical
# Conditions in all cases: 15 nM tritium labelled cAMP, 1 hr at room temperature, SPA beads
# [1] = biological target: PDE1B (Homo sapiens (Human), UniProt Q01064); assay: PDE1 inhibition assay (PDE1B)
# Text: (§1) Table 1 lists the IC50 value for inhibition of PDE1 by the compounds of the invention. […] PDE1 assays are described in the Experimental Section.
# [2] = biological target: PDE1A (Homo sapiens (Human), UniProt P54750); assay: biochemical
# Text: as §1
# [3] = biological target: PDE1C (Homo sapiens (Human), UniProt Q14123); assay: biochemical
# Text: as §1
# Chain of PDE1B (Q01064 whole entry): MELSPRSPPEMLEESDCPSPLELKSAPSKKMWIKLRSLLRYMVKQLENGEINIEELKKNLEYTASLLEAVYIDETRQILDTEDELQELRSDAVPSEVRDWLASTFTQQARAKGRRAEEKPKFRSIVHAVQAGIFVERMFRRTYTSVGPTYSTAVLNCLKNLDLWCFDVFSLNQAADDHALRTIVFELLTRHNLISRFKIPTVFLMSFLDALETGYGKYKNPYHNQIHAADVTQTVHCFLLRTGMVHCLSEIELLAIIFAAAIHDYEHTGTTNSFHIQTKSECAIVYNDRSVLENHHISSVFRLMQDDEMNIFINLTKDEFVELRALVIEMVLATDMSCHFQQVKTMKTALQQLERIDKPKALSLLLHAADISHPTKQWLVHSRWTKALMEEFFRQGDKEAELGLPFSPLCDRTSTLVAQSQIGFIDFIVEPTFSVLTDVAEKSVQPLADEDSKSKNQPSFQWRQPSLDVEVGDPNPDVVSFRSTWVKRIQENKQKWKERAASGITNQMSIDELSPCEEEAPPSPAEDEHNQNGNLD
# Chain of PDE1C (Q14123 whole entry): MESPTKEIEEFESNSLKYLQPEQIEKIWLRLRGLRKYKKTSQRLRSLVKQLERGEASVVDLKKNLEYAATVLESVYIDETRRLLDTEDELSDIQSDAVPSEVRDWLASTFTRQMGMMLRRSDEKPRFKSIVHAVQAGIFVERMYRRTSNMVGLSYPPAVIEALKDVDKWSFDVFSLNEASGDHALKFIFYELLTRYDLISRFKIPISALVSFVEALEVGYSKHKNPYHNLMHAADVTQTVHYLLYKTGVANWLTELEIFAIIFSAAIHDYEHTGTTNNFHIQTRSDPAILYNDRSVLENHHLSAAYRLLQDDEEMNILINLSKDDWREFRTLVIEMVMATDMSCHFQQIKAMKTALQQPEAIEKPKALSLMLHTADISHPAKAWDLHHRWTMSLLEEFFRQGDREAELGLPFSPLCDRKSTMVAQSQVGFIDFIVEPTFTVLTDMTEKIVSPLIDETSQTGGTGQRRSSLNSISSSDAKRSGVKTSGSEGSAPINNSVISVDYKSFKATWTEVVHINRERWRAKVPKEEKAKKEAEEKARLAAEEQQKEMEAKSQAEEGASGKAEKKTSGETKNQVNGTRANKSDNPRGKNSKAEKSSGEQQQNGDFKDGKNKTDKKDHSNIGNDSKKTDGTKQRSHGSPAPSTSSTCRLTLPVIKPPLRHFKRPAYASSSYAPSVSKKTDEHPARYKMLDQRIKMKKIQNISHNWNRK
# Chain of PDE1A (P54750 whole entry): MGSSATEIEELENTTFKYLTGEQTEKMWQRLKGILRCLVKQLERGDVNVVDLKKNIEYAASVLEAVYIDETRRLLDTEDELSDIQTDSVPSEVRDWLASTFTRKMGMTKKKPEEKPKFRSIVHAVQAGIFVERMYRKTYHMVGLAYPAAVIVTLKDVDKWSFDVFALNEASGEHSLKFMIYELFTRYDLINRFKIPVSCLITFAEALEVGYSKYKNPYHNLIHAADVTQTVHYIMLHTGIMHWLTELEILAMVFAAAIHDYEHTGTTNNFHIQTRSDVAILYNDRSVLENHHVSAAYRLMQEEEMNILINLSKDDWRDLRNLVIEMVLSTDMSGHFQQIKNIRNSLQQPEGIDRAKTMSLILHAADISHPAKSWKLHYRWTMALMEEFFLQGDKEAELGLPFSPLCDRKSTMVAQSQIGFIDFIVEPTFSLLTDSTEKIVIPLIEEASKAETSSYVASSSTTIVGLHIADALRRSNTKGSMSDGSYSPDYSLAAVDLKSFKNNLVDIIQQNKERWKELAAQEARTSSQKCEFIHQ
Compound,"IC50 ([1]; PDE1B, IC50 (nM)) [nM]",IC50 [2] [nM],IC50 [3] [nM],"IC50 ([1]; read-out: PDE1B, IC50) [nM]"
"CCOc1ncccc1-c1cc(NCc2ccn(C)n2)c2c(n1)c(C)nn2C(C)CC (single isomer, unassigned) [Example 67, 5-(2-ethoxy-3-pyridyl)-3-methyl-1-[1-methylpropyl]-N-[(1-methylpyrazol-3-yl)methyl]pyrazolo[4,3-b]pyridin-7-amine]",0.64,9.6,27,
"CCOc1ncccc1-c1cc(NCc2cnn(C)c2)c2c(cnn2C(C)C)n1 [Example 25, 5-(2-ethoxy-3-pyridyl)-1-isopropyl-N-[(1-methylpyrazol-4-yl)methyl]pyrazolo[4,3-b]pyridin-7-amine]",,56,150,4.6
"CCOc1ncccc1-c1cc(NCc2cnn(C)c2)c2c(n1)c(C)nn2C1COC1 [Example 27, 5-(2-ethoxy-3-pyridyl)-3-methyl-N-[(1-methylpyrazol-4-yl)methyl]-1-(oxetan-3-yl)pyrazolo[4,3-b]pyridin-7-amine]",,94,170,6.6
"COc1ncccc1CNc1cc(-c2cccnc2OC(F)F)nc2c(C)nn(C(C)C)c12 [Example 188, 5-[2-(difluoromethoxy)-3-pyridyl]-1-isopropyl-N-[(2-methoxy-3-pyridyl)methyl]-3-methyl-pyrazolo[4,3-b]pyridin-7-amine]",,61,60,7.8
"Cc1nn(C(C)C)c2c(NCc3cnn(C)c3)cc(-c3ncco3)nc12 [Example 168, 1-isopropyl-3-methyl-N-[(1-methylpyrazol-4-yl)methyl]-5-oxazol-2-yl-pyrazolo[4,3-b]pyridin-7-amine]",,14,36,2.6
"Cc1nn(C(C)C)c2c(NCc3cnn(C)c3)cc(-c3ncnn3C)nc12 [Example 195, 1-isopropyl-3-methyl-5-(1-methyl-1H-1,2,4-triazol-5-yl)-N-((1-methyl-1H-pyrazol-4-yl)methyl)-1H-pyrazolo[4,3-b]pyridin-7-amine]",,420,160,110
"CCCOc1ncccc1-c1cc(NCc2ncn(C)n2)c2c(n1)c(C)nn2C(C)CC (single isomer, unassigned) [Example 134, 3-methyl-1-[1-methylpropyl]-N-[(1-methyl-1,2,4-triazol-3-yl)methyl]-5-(2-propoxy-3-pyridyl)pyrazolo[4,3-b]pyridin-7-amine]",0.12,0.96,1.5,
"CCOc1ncccc1-c1cc(NCc2ccccc2OC)c2c(n1)c(C)nn2C(C)C [Example 88, 5-(2-ethoxy-3-pyridyl)-1-isopropyl-N-[(2-methoxyphenyl)methyl]-3-methyl-pyrazolo[4,3-b]pyridin-7-amine]",,110,170,5.1
"Cc1nn(C(C)C)c2c(NCc3cnn(C)c3)cc(-n3cncn3)nc12 [Example 185, 1-isopropyl-3-methyl-N-((1-methyl-1H-pyrazol-4-yl)methyl)-5-(1H-1,2,4-triazol-1-yl)-1H-pyrazolo[4,3-b]pyridin-7-amine]",,100,92,24
"CCOc1ncccc1-c1cc(NCc2cn(C)cn2)c2c(n1)c(C)nn2C(C)C [Example 58, 5-(2-ethoxypyridin-3-yl)-1-isopropyl-3-methyl-N-((1-methyl-1H-imidazol-4-yl)methyl)-1H-pyrazolo[4,3-b]pyridin-7-amine 2,2,2-trifluoroacetate]",,1.1,2.1,0.17
"CCOc1ncccc1-c1cc(NCc2ccc(C)nc2)c2c(n1)c(C)nn2C(C)C [Example 87, 5-(2-ethoxy-3-pyridyl)-1-isopropyl-3-methyl-N-[(6-methyl-3-pyridyl)methyl]pyrazolo[4,3-b]pyridin-7-amine]",,6.3,13,0.95
